Assay results taken from patent US8551958B2, “Galactosylated pro-drugs of non-steroidal anti-inflammatories with improved pharmacokinetic characteristics and reduced toxicity of the starting drug” (Stewart Italia Srl, priority 2008, dated 2013).

Columns and labels:
[1] = Chemical stability of the pro-drug (phosphate buffer pH 7.4; HCl 0.1 N pH 1), HPLC; format: physicochemical; details: in the dark
Procedure: For the stability study, the solutions of pro-drug were prepared by dissolving an aliquot of Ketogal in a phosphate buffer at pH 7.4, or else in a solution of HCl 0.1 N (pH 1), as regards chemical stability, or else in a plasma specimen, for enzymatic stability. The solutions were kept in the dark, at a temperature of 37° C., for 24 hours. After each hour an aliquot of specimen was taken. In the case of plasma, said aliquot was previously extracted with acetonitrile (1:2), “vortexed” and centrifuged at 3000 r.p.m. for 10 min. The supernatant was taken and used for analysis at HPLC with diode detector. The half-lives for chemical stability and enzymatic stability were calculated by quantizing, in time, the percentage of pro-drug that remained in solution. For the chromatographic separations, a 1090L HPLC (Hewlett-Packard, Palo Alto, USA) was used, coupled to a diode detector HP 1040A. A Phenomenex Luna C18 (250×4.6 mm, 5 μm) column was used. The wavelength used was 313 nm. The mobile phase was constituted by acetonitrile and an aqueous solution of phosphoric acid […] (pH 3) in the ratio of 68:32. The flow was 1 mL/min, with an injection volume of 20 μl. All the reagents and the solvents used were of analytical degree. The distilled and deionized water was purified by means of a Milli Q system (Millipore). The retention times of the compounds were: ketorolac: 6.7 min; Ketogal: 3.8 min. As internal standard tolmetin was used (9.3 min). The straight line of calibration for quantification of the compounds was constructed using standard solutions with concentrations of between 0.1 and 100 μg/ml. The linearity was obtained with a coefficient of regression (R^2) of approximately 0.998.
For the study of the stability, the solutions of pro-drug were prepared by dissolving an aliquot of Flugal in a phosphate buffer at pH 7.4, as regards chemical stability, or else in a plasma specimen, for enzymatic stability. The solutions were kept in the dark, at a temperature of 37° C., for 24 hours. After each hour an aliquot of specimen was taken. In the case of the plasma said amount was previously extracted with acetonitrile (1:2), “vortexed”, and centrifuged at 3000 r.p.m. for 10 min. The supernatant was taken and used for analysis at HPLC with diode detector. The half-lives for the chemical stability and enzymatic stability were calculated by quantizing, in time, the percentage of pro-drug that remained in solution. A 1090L HPLC (Hewlett-Packard, Palo Alto, USA) coupled to a diode detector HP 1040A was used for the chromatographic separations. The column used was a Supelcosil LC-18, 250×4.6 mm, particle size […]. The volume injected was […] and the flow of 1 mL/min. The mobile phase was constituted by a mixture of aqueous CH3CN/H3PO4 1 mM (pH 3) [32:68]. For the quantitative determination reading was made at 250 nm. The retention times of the various compounds involved in the analysis were: for Flugal 6 min and for flurbiprofen 11 min. All the reagents and the solvents used were of analytical degree. The distilled and deionized water was purified by means of a Milli Q system (Millipore). The straight line of calibration for the quantification of the compounds was constructed using standard solutions with concentrations of between 0.1 and 100 μg/ml. Linearity was obtained with a coefficient of regression (R^2) of approximately 0.998. From the results of said analysis (illustrated in Table 3) it emerges that the pro-drug Flugal has a good chemical stability and a good susceptibility to enzymatic hydrolysis.
Chemical stability was assessed also at pH 1.0 in a solution of HCl 0.1N as described.
For the stability study, the solutions of pro-drug were prepared by dissolving an aliquot of Okigal in a phosphate buffer at pH 7.4, or else in a solution of HCl 0.1 N (pH 1), as regards chemical stability, or else in a plasma specimen, for enzymatic stability. The solutions were kept in the dark, at a temperature of 37° C., for 24 hours. […]

[2] = Enzymatic stability in plasma, HPLC; format: in vitro ADME; details: plasma specimen, 37° C., in the dark; read-out: Plasma T½ (converted)
Procedure: For the stability study, the solutions of pro-drug were prepared by dissolving an aliquot of Ketogal in a phosphate buffer at pH 7.4, or else in a solution of HCl 0.1 N (pH 1), as regards chemical stability, or else in a plasma specimen, for enzymatic stability. The solutions were kept in the dark, at a temperature of 37° C., for 24 hours. After each hour an aliquot of specimen was taken. In the case of plasma, said aliquot was previously extracted with acetonitrile (1:2), “vortexed” and centrifuged at 3000 r.p.m. for 10 min. The supernatant was taken and used for analysis at HPLC with diode detector. The half-lives for chemical stability and enzymatic stability were calculated by quantizing, in time, the percentage of pro-drug that remained in solution. For the chromatographic separations, a 1090L HPLC (Hewlett-Packard, Palo Alto, USA) was used, coupled to a diode detector HP 1040A. A Phenomenex Luna C18 (250×4.6 mm, 5 μm) column was used. The wavelength used was 313 nm. The mobile phase was constituted by acetonitrile and an aqueous solution of phosphoric acid […] (pH 3) in the ratio of 68:32. The flow was 1 mL/min, with an injection volume of 20 μl. All the reagents and the solvents used were of analytical degree. The distilled and deionized water was purified by means of a Milli Q system (Millipore). […] The straight line of calibration for quantification of the compounds was constructed using standard solutions with concentrations of between 0.1 and 100 μg/ml. […]
For the study of the stability, the solutions of pro-drug were prepared by dissolving an aliquot of Flugal in a phosphate buffer at pH 7.4, as regards chemical stability, or else in a plasma specimen, for enzymatic stability. […] The half-lives for the chemical stability and enzymatic stability were calculated by quantizing, in time, the percentage of pro-drug that remained in solution. […] For the quantitative determination reading was made at 250 nm. […] The straight line of calibration for the quantification of the compounds was constructed using standard solutions with concentrations of between 0.1 and 100 μg/ml. […]

[3] = system: writhing induced by acetic acid; assay: Writhing test induced by acetic acid; format: in vivo, mice
Procedure: The analgesic activity was studied using the “writhing test” using acetic acid and using magnesium sulphate. To the mice there was administered by intraperitoneal route 1 mL of solution at 1% of acetic acid, and the number of writhing events was evaluated for 20 min, after 5 min from administration of the solution of acetic acid. Writhing is defined as a contraction of the abdominal muscles accompanied by elongation of the body and of the rear legs. Ketorolac and Ketogal were administered by oral route 60 min prior to administration of the solution of acetic acid. The analgesic effect is expressed in number of writhing events as compared to the control.

[4] = system: male Swiss mice; assay: Chronic and sub-chronic experiments: liver, kidney and stomach examination; format: in vivo
Procedure: (§1) Animals were sacrificed and then liver, stomach and kidney were collected in glass tubes and analysed histologically and biochemically.
(§2) Liver samples were fixed in 10% buffered formalin and embedded in paraffin, sliced, and stained with hematoxylin & eosin (H&E) for assessment of liver pathology. […] To confirm histological data, western blot analysis for TNF-alpha, IL-6 and malonyldialdehyde assay were then performed in liver lysates.

[5] = system: TNF-alpha; assay: Western blot in liver lysates, TNF-alpha; format: in vivo, mice; details: ketogal 16.3 mg/Kg oral for 3, 5 and 7 days
Procedure: as §1, §2

[6] = system: IL-6; assay: Western blot in liver lysates, IL-6; format: in vivo, mice; details: ketogal 16.3 mg/Kg oral for 3, 5 and 7 days
Procedure: as §1, §2

[7] = system: lipid peroxidation; assay: Malonyldialdehyde assay in liver lysates; format: in vivo, mice; details: ketogal 16.3 mg/Kg oral for 3, 5 and 7 days
Procedure: as §1, §2

[8] = system: PGE synthase; assay: Western blot, stomach, PGE synthase protein expression; format: in vivo, mice; details: ketorolac 10 mg/Kg, ketogal 16.3 mg/Kg, oral, 3, 5 and 7 days
Text: as §1

[9] = system: PPAR-gamma; assay: Western blot, stomach, PPAR-gamma protein expression; format: in vivo, mice; details: ketorolac 10 mg/Kg, ketogal 16.3 mg/Kg, oral, 3, 5 and 7 days
Text: as §1

Compound: O=C(c1ccccc1)c1ccc2n1CC[C@@H]2C(=O)OCC1O[C@H](O)C(O)C(O)[C@H]1O (mixture of isomers) [Ketogal, ketorolac-D-galactos-6′-yl ester]
- pH 7.4 T½ ([1]; phosphate buffer at pH 7.4, 37° C.): >4 hours
- pH 1 T½ ([1]; solution of HCl 0.1 N (pH 1), 37° C.): 2.1 hours
- half-life [2]: 1.5 h
- Analgesic activity compared with ketorolac ([3]; Ketogal 0.163 mg/kg versus ketorolac 0.1 mg/kg, oral and subcutaneous administration): better analgesic and anti-inflammatory activity than ketorolac
- Analgesic effect (number of writhing events compared to control) ([3]; oral, 60 min prior to acetic acid, ketorolac 0.01-10 mg/kg, Ketogal 0.0163-16.3 mg/kg): dose-dependent analgesic effect of higher than 0.163 mg/kg
- Liver histology (H&E) ([4]; ketogal 16.3 mg/Kg oral for 3, 5 and 7 days): normal liver histology
- Hepatic inflammation and/or damage (biochemical analysis) ([4]; ketogal 16.3 mg/Kg oral for 3, 5 and 7 days, liver lysates): no hepatic inflammation and/or damage
- Kidney histology ([4]; ketorolac 10 mg/Kg, ketogal 16.3 mg/Kg, oral, after 3, 5 and 7 days): normal kidney histology
- Stomach samples, ulcerogenicity ([4]; ketorolac 10 mg/Kg, ketogal 16.3 mg/Kg, oral, for 3 days): undamaged and similar to control
- TNF-alpha level in liver [5]: no different compared to control mice
- IL-6 level in liver [6]: no different compared to control mice
- Lipid peroxidation level in liver (malonyldialdehyde) [7]: no different compared to control mice
- Gastric PGE synthase protein expression [8]: not inhibited
- Gastric PPAR-gamma protein expression [9]: not inhibited
